Experimental data published in patent publication US9109004B2, “Progesterone receptor antagonists” (Bayer Intellectual Property GmbH, priority 2010, dated 2015).

How the values were obtained:
[1] = Clearance and half-life after intravenous application in rats; format: in vivo, rat; conditions: female rats, i.v. bolus 0.3-0.5 mg/kg
Protocol: Determination of Clearance and Half-Life after Intravenous Application in Rats
The in-vivo clearance and half-life of the test substances were determined in female rats with a body weight of approx. 200-250 g. For this, the test substances (in cassette testing, up to 3 different substances per animal) were applied in dissolved form at a dose of 0.3-0.5 mg/kg as a bolus with a volume of 2 ml/kg intravenously (i.v.) in the caudal vein, using compatible solubilizers such as PEG400 and/or ethanol in a compatible amount. Blood samples of approx. 0.2 mL were taken from a polyurethane catheter in the vena jugularis at the time points 2 min, 8 min, 15 min, 30 min, 45 min, 1 h, 2 h, 4 h, 6 h, 8 h, 24 h. The blood samples were kept in lithium-heparin tubes (Monovetten® from Sarstedt) without shaking, and were centrifuged for 15 min at 3000 rpm. A 100 μL aliquot was taken from the supernatant (plasma) and was precipitated by adding 400 μL of cold methanol. The precipitated samples were frozen out overnight at −20° C., then centrifuged once again for 15 min at 3000 rpm before 150 μL of the clear supernatant was taken for the determination of concentration. Analysis was carried out with an Agilent 1200 HPLC system connected to LCMS/MS detection.
Calculation of the pK Parameters (Via Non-Linear Regression by pK Calculation Software): […]

[2] = target: T1, human progesterone receptor B (Homo sapiens, UniProt P06401); test: Progesterone-receptor-antagonistic action in stably transfected SK-N-MC cells, MTV-LUC reporter (PR-B); format: cell-based; conditions: antagonistic potency vs 0.1 nmol/l promegestone, 24 hours, luciferase
T1 construct: expressed in transfected cells; host or cells: SK-N-MC human neuroblastoma cells, stably transfected
T1 sequence (P06401 1-933): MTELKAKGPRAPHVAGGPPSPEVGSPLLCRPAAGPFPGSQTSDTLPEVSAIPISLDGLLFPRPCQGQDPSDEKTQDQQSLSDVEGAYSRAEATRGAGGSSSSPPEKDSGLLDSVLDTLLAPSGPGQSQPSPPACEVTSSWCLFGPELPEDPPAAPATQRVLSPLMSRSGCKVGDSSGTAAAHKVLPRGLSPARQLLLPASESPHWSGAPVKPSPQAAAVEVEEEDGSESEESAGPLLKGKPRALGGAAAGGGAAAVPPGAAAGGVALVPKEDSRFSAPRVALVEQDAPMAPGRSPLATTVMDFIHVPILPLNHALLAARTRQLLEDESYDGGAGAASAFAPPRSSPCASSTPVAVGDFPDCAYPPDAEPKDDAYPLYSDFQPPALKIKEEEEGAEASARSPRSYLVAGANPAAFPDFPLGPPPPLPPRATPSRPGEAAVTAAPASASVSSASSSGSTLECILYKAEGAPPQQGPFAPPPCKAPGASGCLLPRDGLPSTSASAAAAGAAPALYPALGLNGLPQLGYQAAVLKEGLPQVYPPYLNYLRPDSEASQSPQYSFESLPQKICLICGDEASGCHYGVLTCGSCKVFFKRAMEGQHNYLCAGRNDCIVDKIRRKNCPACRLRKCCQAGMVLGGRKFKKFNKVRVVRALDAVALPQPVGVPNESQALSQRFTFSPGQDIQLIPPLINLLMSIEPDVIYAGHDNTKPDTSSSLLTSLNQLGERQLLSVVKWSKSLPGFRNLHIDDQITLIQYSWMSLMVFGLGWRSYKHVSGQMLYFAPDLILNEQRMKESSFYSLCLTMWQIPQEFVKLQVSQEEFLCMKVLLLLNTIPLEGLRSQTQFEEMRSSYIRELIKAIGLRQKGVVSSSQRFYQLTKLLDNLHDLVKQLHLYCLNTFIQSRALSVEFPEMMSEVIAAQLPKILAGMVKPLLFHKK
Protocol: Progesterone-Receptor-Antagonistic Action in Stable Transfectants of Human Neuroblastoma Cells (SK-N-MC Cells) with the Human Progesterone A or Progesterone B Receptor and an MTV-LUC Reporter Construct
SK-N-MC cells (human neuroblastoma cells) that have been stably transfected with plasmids that express the human progesterone receptor B (pRChPR-B-neo) or the human progesterone receptor A (pRChPR-A-neo) and a reporter construct (pMMTV-LUC), were incubated for 24 hours either in the absence (negative control) or in the presence of increasing amounts of the particular test compound (0.01 nmol/l, 0.1 nmol/l, 1 nmol/l, 10 nmol/l, 100 nmol/l and 1 μmol/l), to determine the agonistic efficacy. As positive control of reporter gene induction, the cells were treated with the synthetic gestagen promegestone (0.01 nmol/l, 0.1 nmol/l, 1 nmol/l, 10 nmol/l, 100 nmol/l and 1 μmol/l). For determination of the antagonistic activity, the cells were treated with 0.1 nmol/l promegestone and additionally with increasing amounts of the particular test compound (0.01 nmol/l, 0.1 nmol/l, 1 nmol/l, 10 nmol/l, 100 nmol/l and 1 μmol/l). The activity of the reporter gene LUC (LUC=luciferase) was determined in the cell lysates and was measured as RLU (relative light units). All measured values are given as % efficacy and as EC50 or IC50 concentrations.

CLblood [1]: 6.7 mL/min/kg
half-life ([1]; rat, plasma, iv, terminal half-life, read-out: t½ (converted)): 9 h
IC50 [2]: 0.07 nM
SMILES: C[C@]12C[C@H](c3ccc(-c4ccc(C(N)=O)cc4)cc3)C3=C4CCC(=O)C=C4CC[C@H]3[C@@H]1CC[C@@]2(O)C(F)(F)C(F)(F)F [Example 79, 4′-[(11β,17β)-17-Hydroxy-3-oxo-17-(pentafluoroethyl)estra-4,9-dien-11-yl]biphenyl-4-carboxamide]
